Data published in PubChem BioAssay AID2060890 (Molecular Pharmacology Branch, DTP, NCI, 2025).

System: LG0703-F948-PDC complex spheroid viability
Assay: Anticancer human tumor LG0703-F948-PDC patient-derived lung adenocarcinoma cell line growth inhibition [RAS]
Conditions: for IC50: curve of first compound; for viability, T/C: stronger effect = lower value
How it was run: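 Tumour cells grown as complex spheroids with HUVEC endothelial cells and mesenchymal stem cells, treated with RAS pathway inhibitor combinations. Each agent spans half-log steps from near clinical Cmax, or 10 microM where Cmax is unknown.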
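Note: spheroids exposed to agents for 7 days.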
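Throughout, for viability, T/C: 100% = DMSO vehicle wells.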

`CCN1CCN(Cc2ccc(Nc3ncc(F)c(-c4cc(F)c5nc(C)n(C(C)C)c5c4)n3)nc2)CC1` + CCn1c(-c2cc(N3CCN(C)CC3)cnc2C(C)OC)c2c3cc(ccc31)-c1csc(n1)CC(NC(=O)C1CC1C)C(=O)N1CCCC(N1)C(=O)OCC(C)(C)C2 was tested, and the IC50 (second compound 0.000949 µM) was over 1 µM, the IC50 (second compound 0.003 µM) was over 1 µM and the IC50 (second compound 0.00949 µM) was under 0.00316 µM. It also gave an IC50 (second compound 0.03 µM) of under 0.00316 µM, an IC50 (second compound 0.0949 µM) of under 0.00316 µM and an IC50 (second compound 0.3 µM) of under 0.00316 µM. For the same molecule, the viability, T/C (second compound 0.000949 µM, first compound 0.00316 µM) was 82%, the viability, T/C (second compound 0.000949 µM, first compound 0.01 µM) was 68% and the viability, T/C (second compound 0.000949 µM, first compound 0.0316 µM) was 60.8%. For the same molecule, the viability, T/C (second compound 0.000949 µM, first compound 0.1 µM) was 68.2%, the viability, T/C (second compound 0.000949 µM, first compound 0.316 µM) was 63.9% and the viability, T/C (second compound 0.000949 µM, first compound 1 µM) was 52%. The viability, T/C (second compound 0.003 µM, first compound 0.00316 µM) was 58.2%, the viability, T/C (second compound 0.003 µM, first compound 0.01 µM) was 49.1% and the viability, T/C (second compound 0.003 µM, first compound 0.0316 µM) was 47.7%. The viability, T/C (second compound 0.003 µM, first compound 0.1 µM) was 53.2%, the viability, T/C (second compound 0.003 µM, first compound 0.316 µM) was 57% and the viability, T/C (second compound 0.003 µM, first compound 1 µM) was 48.9%. It also gave a viability, T/C (second compound 0.00949 µM, first compound 0.00316 µM) of 26.1%, a viability, T/C (second compound 0.00949 µM, first compound 0.01 µM) of 24.8% and a viability, T/C (second compound 0.00949 µM, first compound 0.0316 µM) of 28.4%. For the same molecule, the viability, T/C (second compound 0.00949 µM, first compound 0.1 µM) was 22%, the viability, T/C (second compound 0.00949 µM, first compound 0.316 µM) was 31.7% and the viability, T/C (second compound 0.00949 µM, first compound 1 µM) was 34.5%. It also gave a viability, T/C (second compound 0.03 µM, first compound 0.00316 µM) of 17%, a viability, T/C (second compound 0.03 µM, first compound 0.01 µM) of 14.6% and a viability, T/C (second compound 0.03 µM, first compound 0.0316 µM) of 14.7%. For the same molecule, the viability, T/C (second compound 0.03 µM, first compound 0.1 µM) was 17%, the viability, T/C (second compound 0.03 µM, first compound 0.316 µM) was 18.6% and the viability, T/C (second compound 0.03 µM, first compound 1 µM) was 26.2%. It also gave a viability, T/C (second compound 0.0949 µM, first compound 0.00316 µM) of 10.1%, a viability, T/C (second compound 0.0949 µM, first compound 0.01 µM) of 11.1% and a viability, T/C (second compound 0.0949 µM, first compound 0.0316 µM) of 10.2%. For the same molecule, the viability, T/C (second compound 0.0949 µM, first compound 0.1 µM) was 11.3%, the viability, T/C (second compound 0.0949 µM, first compound 0.316 µM) was 14.9% and the viability, T/C (second compound 0.0949 µM, first compound 1 µM) was 23.9%. For the same molecule, the viability, T/C (second compound 0.3 µM, first compound 0.00316 µM) was 9.56%, the viability, T/C (second compound 0.3 µM, first compound 0.01 µM) was 9.57% and the viability, T/C (second compound 0.3 µM, first compound 0.0316 µM) was 8.56%. The viability, T/C (second compound 0.3 µM, first compound 0.1 µM) was 10.3%, the viability, T/C (second compound 0.3 µM, first compound 0.316 µM) was 13.5% and the viability, T/C (second compound 0.3 µM, first compound 1 µM) was 18.3%.
`CC(C)NCC(C(=O)N1CCN(c2ncnc3c2C(C)CC3O)CC1)c1ccc(Cl)cc1` (centres undefined) + C=CC(=O)N1CCN(c2nc(OCC3CCCN3C)nc3c(F)c(-c4nc(N)cc(C)c4C(F)(F)F)c(Cl)cc23)C(C)C1 gave an IC50 (second compound 0.00316 µM) of 0.577 µM, an IC50 (second compound 0.01 µM) of 0.656 µM and an IC50 (second compound 0.0316 µM) of 0.625 µM. The IC50 (second compound 0.1 µM) was 0.65 µM, the IC50 (second compound 0.316 µM) was 0.64 µM and the IC50 (second compound 1 µM) was 0.696 µM. It also gave a viability, T/C (second compound 0.00316 µM, first compound 0.0316 µM) of 97%, a viability, T/C (second compound 0.00316 µM, first compound 0.1 µM) of 77.6% and a viability, T/C (second compound 0.00316 µM, first compound 0.316 µM) of 56.9%. The viability, T/C (second compound 0.00316 µM, first compound 1 µM) was 44.7%, the viability, T/C (second compound 0.00316 µM, first compound 3.16 µM) was 28.1% and the viability, T/C (second compound 0.00316 µM, first compound 10 µM) was 21.6%. For the same molecule, the viability, T/C (second compound 0.01 µM, first compound 0.0316 µM) was 96.4%, the viability, T/C (second compound 0.01 µM, first compound 0.1 µM) was 78.8% and the viability, T/C (second compound 0.01 µM, first compound 0.316 µM) was 56.2%. For the same molecule, the viability, T/C (second compound 0.01 µM, first compound 1 µM) was 46.5%, the viability, T/C (second compound 0.01 µM, first compound 3.16 µM) was 31.6% and the viability, T/C (second compound 0.01 µM, first compound 10 µM) was 20.8%. The viability, T/C (second compound 0.0316 µM, first compound 0.0316 µM) was 100%, the viability, T/C (second compound 0.0316 µM, first compound 0.1 µM) was 79.9% and the viability, T/C (second compound 0.0316 µM, first compound 0.316 µM) was 61.9%. For the same molecule, the viability, T/C (second compound 0.0316 µM, first compound 1 µM) was 40.4%, the viability, T/C (second compound 0.0316 µM, first compound 3.16 µM) was 33.3% and the viability, T/C (second compound 0.0316 µM, first compound 10 µM) was 23.3%. The viability, T/C (second compound 0.1 µM, first compound 0.0316 µM) was 87.3%, the viability, T/C (second compound 0.1 µM, first compound 0.1 µM) was 74.6% and the viability, T/C (second compound 0.1 µM, first compound 0.316 µM) was 62%. The viability, T/C (second compound 0.1 µM, first compound 1 µM) was 42%, the viability, T/C (second compound 0.1 µM, first compound 3.16 µM) was 31.6% and the viability, T/C (second compound 0.1 µM, first compound 10 µM) was 21.2%. For the same molecule, the viability, T/C (second compound 0.316 µM, first compound 0.0316 µM) was 103%, the viability, T/C (second compound 0.316 µM, first compound 0.1 µM) was 82% and the viability, T/C (second compound 0.316 µM, first compound 0.316 µM) was 58.5%. It also gave a viability, T/C (second compound 0.316 µM, first compound 1 µM) of 44.2%, a viability, T/C (second compound 0.316 µM, first compound 3.16 µM) of 29.8% and a viability, T/C (second compound 0.316 µM, first compound 10 µM) of 18.5%. It also gave a viability, T/C (second compound 1 µM, first compound 0.0316 µM) of 104%, a viability, T/C (second compound 1 µM, first compound 0.1 µM) of 97% and a viability, T/C (second compound 1 µM, first compound 0.316 µM) of 61.4%. The viability, T/C (second compound 1 µM, first compound 1 µM) was 44.9%, the viability, T/C (second compound 1 µM, first compound 3.16 µM) was 25.8% and the viability, T/C (second compound 1 µM, first compound 10 µM) was 15.1%.
